Molecular target: hQC (Homo sapiens, UniProt Q16769)
Experiment: Inhibitor assay for glutaminyl cyclase activity (fluorometric, H-Gln-βNA / H-Gln-AMC)
Format: biochemical
Conditions: compound from preparative synthesis, purified; read-out: IC50 hQC
Method in brief: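 Coupled fluorometric assay at 30 °C with pyroglutamyl aminopeptidase, in Tris/HCl pH 8.0 with EDTA, substrate H-Gln-βNA (0.2 mM; ex/em 320/410 nm) or H-Gln-AMC (ex/em 380/460 nm), initiated by QC. Screening: 4 mM inhibitor, substrate at 1 KM; Ki from progress curves fitted to competitive inhibition.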

Chain of hQC (Q16769 29-361): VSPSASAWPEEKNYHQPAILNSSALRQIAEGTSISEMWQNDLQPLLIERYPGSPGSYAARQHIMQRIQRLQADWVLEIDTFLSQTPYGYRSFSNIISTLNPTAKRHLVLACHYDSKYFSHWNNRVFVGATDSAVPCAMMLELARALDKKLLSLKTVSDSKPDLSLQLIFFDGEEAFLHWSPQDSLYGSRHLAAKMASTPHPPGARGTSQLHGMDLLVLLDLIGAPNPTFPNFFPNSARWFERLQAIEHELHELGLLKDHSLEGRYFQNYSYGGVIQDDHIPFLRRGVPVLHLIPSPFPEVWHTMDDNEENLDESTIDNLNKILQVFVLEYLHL

Row | IC50 [nM] | SMILES
1 | 1040 | CCCCCC1=C(O)C(=O)N(CCCn2ccnc2)C1c1ccc(OC)cc1 (stereo not shown) [Compound 193, 3-Hydroxy-1-(3-imidazol-1-yl-propyl)-5-(4-methoxy-phenyl)-4-pentyl-1,5-dihydro-pyrrol-2-one]

Same assay, conditions: read-out: IC50

Row | SMILES | IC50 [nM]
2 | O=C1C(O)=C(c2ccccc2)C(c2ccc(Cl)c(Cl)c2)N1c1ccc2[nH]cnc2c1 (stereo not shown) [Compound 264, 1-(1H-Benzoimidazol-5-yl)-5-(3,4-dichloro-phenyl)-3-hydroxy-4-phenyl-1,5-dihydro-pyrrol-2-one] | 1570
3 | CC(C)C1=C(O)C(=O)N(CCCn2ccnc2)C1c1ccccc1F (stereo not shown) [Compound 74, 5-(2-Fluoro-phenyl)-3-hydroxy-1-(3-imidazol-1-yl-propyl)-4-isopropyl-1,5-dihydro-pyrrol-2-one] | 2200
4 | CCCCCC1C(c2ccc(O)cc2)=C(O)C(=O)N1CCCn1ccnc1 (stereo not shown) [Compound 159, 3-Hydroxy-4-(4-hydroxy-phenyl)-1-(3-imidazol-1-yl-propyl)-5-pentyl-1,5-dihydro-pyrrol-2-one] | 40
5 | CCCC(=O)C1=C(O)C(=O)N(c2ccc3[nH]cnc3c2)C1C1CCOC1 (stereo not shown) [Compound 425, 1-(1H-Benzoimidazol-5-yl)-4-butyryl-3-hydroxy-5-(tetrahydro-furan-3-yl)-1,5-dihydro-pyrrol-2-one] | 1840
6 | Cc1cccc(C2C(C(=O)c3ccsc3)=C(O)C(=O)N2c2ccc3[nH]cnc3c2)n1 (stereo not shown) [Compound 306, 1-(1H-Benzoimidazol-5-yl)-3-hydroxy-5-(6-methyl-pyridin-2-yl)-4-(thiophene-3-carbonyl)-1,5-dihydro-pyrrol-2-one] | 400
7 | CCCCCC1C(c2ccccc2)=C(O)C(=O)N1CCCn1ccnc1 (stereo not shown) [Compound 89, 3-Hydroxy-1-(3-imidazol-1-yl-propyl)-5-pentyl-4-phenyl-1,5-dihydro-pyrrol-2-one] | 40
8 | CCCC(=O)C1=C(O)C(=O)N(c2ccc3[nH]cnc3c2)C1c1cc(C(F)(F)F)cc(C(F)(F)F)c1 (stereo not shown) [Compound 335, 1-(1H-Benzoimidazol-5-yl)-5-(3,5-bis-trifluoromethyl-phenyl)-4-butyryl-3-hydroxy-1,5-dihydro-pyrrol-2-one] | 6790
9 | CC1=C(O)C(=O)N(c2ccc3[nH]cnc3c2)C1c1cc(Cl)ccc1O (stereo not shown) [Compound 337, 1-(1H-Benzoimidazol-5-yl)-5-(5-chloro-2-hydroxy-phenyl)-3-hydroxy-4-methyl-1,5-dihydro-pyrrol-2-one] | 5800
10 | CC(=O)C1=C(O)C(=O)N(c2ccc3[nH]cnc3c2)C1c1cc(C)c(C)o1 (stereo not shown) [Compound 433, 4-Acetyl-1-(1H-benzoimidazol-5-yl)-5-(4,5-dimethyl-furan-2-yl)-3-hydroxy-1,5-dihydro-pyrrol-2-one] | 1210

Further compounds by falling IC50, results first:

Row | IC50 [nM] | SMILES
11 | 4900 | CCC1C(C)=C(O)C(=O)N1CCCn1ccnc1 (stereo not shown) [Compound 49, 5-Ethyl-3-hydroxy-1-(3-imidazol-1-yl-propyl)-4-methyl-1,5-dihydro-pyrrol-2-one]
12 | 2290 | CCC1=C(O)C(=O)N(c2ccc3[nH]cnc3c2)C1c1cc(Br)c(O)c(Br)c1 (stereo not shown) [Compound 288, 1-(1H-Benzoimidazol-5-yl)-5-(3,5-dibromo-4-hydroxy-phenyl)-4-ethyl-3-hydroxy-1,5-dihydro-pyrrol-2-one]
13 | 1750 | CC(=O)C1=C(O)C(=O)N(c2ccc3[nH]cnc3c2)C1c1ccnc2ccccc12 (stereo not shown) [Compound 318, 4-Acetyl-1-(1H-benzoimidazol-5-yl)-3-hydroxy-5-quinolin-4-yl-1,5-dihydro-pyrrol-2-one]
14 | 1480 | CC(C)CC(=O)C1=C(O)C(=O)N(c2ccc3[nH]cnc3c2)C1c1ccco1 (stereo not shown) [Compound 413, 1-(1H-Benzoimidazol-5-yl)-5-furan-2-yl-3-hydroxy-4-(3-methyl-butyryl)-1,5-dihydro-pyrrol-2-one]
15 | 40 | O=C1C(O)=C(c2ccc(O)cc2)C(c2ccccc2O)N1CCCn1ccnc1 (stereo not shown) [Compound 157, 3-Hydroxy-5-(2-hydroxy-phenyl)-4-(4-hydroxy-phenyl)-1-(3-imidazol-1-yl-propyl)-1,5-dihydro-pyrrol-2-one]
16 | 40 | CCCCCC1=C(O)C(=O)N(CCCn2ccnc2)C1c1ccc(OC)cc1 (stereo not shown) [Compound 193, 3-Hydroxy-1-(3-imidazol-1-yl-propyl)-5-(4-methoxy-phenyl)-4-pentyl-1,5-dihydro-pyrrol-2-one]

— patent US8278345B2, “Inhibitors of glutaminyl cyclase” (Probiodrug AG, priority 2006, dated 2012)
